# US8071548B2, “Method of reducing injury to mammalian cells” (Nono, Inc., priority 2002, dated 2011)
# Legend:
# [1] = Physiological variables in pre-treatment MCAO study; assay type: in vivo, Sprague-Dawley rats
# Experimental: Next, I examined whether pretreatment with Tat-peptides would reduce stroke damage. Experiments were carried out in adult male Sprague-Dawley rats subjected to transient middle cerebral artery occlusion (MCAO) for 90 minutes by the intraluminal suture method (36,37). Animals were fasted overnight and injected with atropine sulfate (0.5 mg/kg IP). After 10 minutes anesthesia was induced with 3.5% halothane in a mixture of nitrous oxide and oxygen (Vol. 2:1) and maintained with 0.8% halothane. Rats were orally intubated, mechanically ventilated, and paralyzed with pancuronium bromide (0.6 mg/kg IV). Body temperature was maintained at 36.5-37.5° C. with a heating lamp. Polyethylene catheters in the femoral artery and vein were used to continuously record blood pressure and to sample blood for gas and pH measurements. […] This produces an extensive infarction encompassing the cerebral cortex and basal ganglia. […] Physiological parameters (body temperature, blood pressure, blood gases) were monitored and maintained throughout the experiment (Table 1). All experimental manipulations and analyses of data were performed by individuals blinded to the treatment groups. The extent of cerebral infarction was measured 24 h after MCAO onset (FIG. 7C inset). The postural reflex test (38), and the forelimb placing test (39) were used to grade neurological function on a scale of 0 to 12 (normal=0; worst=12) during MCAO (at 50 minutes) and 24 h thereafter.
# NMDARs = experiment: NMDA-evoked 45Ca2+ accumulation in cortical cultures; assay type: cell-based, mouse; conditions: 50 nM pre-treatment
# Experimental: Excitotoxicity and Ca^2+ accumulation measurements were performed identically to the methods described and validated in refs. 4 and 14. I used measurements of propidium iodide fluorescence as an index of cell death, and of radiolabelled ^45Ca^2+ accumulation for Ca^2+ load determinations in sister cultures on the same day. Experimental solutions were as previously described (4). Ca^2+ influx was pharmacologically channeled through distinct pathways as follows: To NMDARs by applying NMDA (×60 min) in the presence of both CNQX (Research Biochemicals Inc.) and nimodipine (Miles Pharmaceuticals), to non-NMDARs by applying kainic acid (×60 min or 24 h) in the presence of both MK-801 (RBI) and nimodipine, and to VSCCs using 50 mM K^+ solution (×60 min) containing 10 mM Ca^2+ and S(−)-Bay K 8644, an L-type channel agonist (300-500 nM; RBI), MK-801 and CNQX. Antagonist concentrations were (in μM): MK-801 10, CNQX 10, nimodipine 2. All three antagonists were added after the 60 min agonist applications for the remainder of all experiments (24 h). A validation of this approach in isolating Ca^2+ influx to the desired pathway in these cortical cultures has been published (4).
# [2] = system: cortical neuronal cultures; experiment: Sublethal stretch injury with or without NMDA, cell death in cortical cultures; assay type: cell-based
# Experimental: […]. In brief, cerebral cortices from 10 to 12 embryos were incubated for 10 min in 0.05% trypsin-EDTA, dissociated by trituration, and plated on flexible membranes coated with poly-L-ornithine in 6 well plates (Flexcell International Corporation, Hillsborough, N.C.) at a density of 3.25×10^6 cells per well. Plating medium consisted of DMEM supplemented with 10% heat-inactivated horse serum (Gibco) and (in mM) 2 glutamine, 25 glucose, and 26 bicarbonate. The cultures were maintained at 37° C. in a humidified 5% CO2 atmosphere. After 3 days in vitro, growth of non-neuronal cells was halted by a 48 h exposure to 10 μM FDU-solution (5 μM uridine, 5 μM (+)-5-fluor-2′-deoxyuridine). This produces cultures in which >85% of the cells are neurons, based on immunohistochemical staining for glial fibrillary associated protein (exclusive to astrocytes), and for the NMDAR1 subunit (not shown). The cultures were used for experiments after 12-14 days in vitro.
# The cultures, grown on silastic membranes as above, were placed in the Flexercell® FX-3000™ Strain Unit (Flexcell Int., Inc.), a computer-driven instrument that uses a vacuum pulse to deform the culture substrate. In all experiments, the cortical cultures were stretched to 130% of their original length for 1 s, inducing a sublethal injury as recently characterized by us (Arundine et al., 2003). The stretched neurons maintained cell membrane integrity, viability, and electrophysiological function.
# Cell death was determined by serial quantitative measurements of propidium iodide (PI) fluorescence using a multiwell plate fluorescence scanner (Cytofluor II, PerSeptive Biosytems, Framingham, Mass., USA) as described previously (Sattler et al., 1997; Sattler et al., 1998). In brief, the culture medium in each tissue culture well was replaced with control solution containing 50 μg/ml PI, and a baseline fluorescence reading was taken. Sequential readings were then taken at appropriate intervals over the 20 h observation period. The fraction of dead cells in each culture at a given time was calculated as: Fraction dead=(Ft−Fo)/FNMDA Where Ft=PI fluorescence at time t, F0=initial PI fluorescence at time zero and FNMDA=background subtracted PI fluorescence of identical cultures from the same dissection and plating, 20-24 h after a 60 min exposure to 1 mM NMDA at 37° C. Based on manual observations at the time of validation of this technique, this NMDA exposure routinely produced near complete neuronal death in each culture but had no effect on surrounding glia (also see (Bruno et al., 1994; David et al., 1996; Sattler et al., 1997)). Adding Triton X-100 (0.1%) to cultures treated in this manner produced an additional 10-15% increase in PI fluorescence due to permeabilization of non-neuronal cell membranes, consistent with a 10-15% glial component in the cultures.
# All experiments were performed at 37° C. Unless otherwise indicated, all solutions contained nimodipine (2 μM) and CNQX (10 μM) to restrict the actions of applied NMDA to NMDARs by preventing the secondary activation of other pathways (Sattler et al., 1998). In general, the cultures were washed ×2 with control solution and immediately stretched to 130% of their original length for 1 s. After the stretch, they were washed ×1 with control solution alone or challenged with an additional treatment (e.g., NMDA) and placed at 37° C. for 1 h. They were then washed ×1 with control solution and then with control solution containing 50 μg/ml PI to obtain a baseline reading. In pilot studies, baseline readings obtained at this stage were similar to those obtained by staining the cells with PI prior to stretch. As the stretch causes splashing of the bath solution, staining with PI after stretch reduced biohazard potential and artifacts associated with PI outside the culture well. Unstretched controls were manipulated identically to stretched cultures.
substance,measurement,setting,value
Tat-KLSSIESDV [Tat-NR2B9c],Body Temperature,[1]; After MCAo (15 min),36.8 ± 0.12 °C
same,Body Temperature,[1]; After MCAo (24 hr),36.5 ± 0.14 °C
same,Body weight,[1]; After MCAo (24 hr),250 ± 5 g
same,Body Temperature,[1]; Before MCAo(15 min),36.7 ± 0.20 °C
same,MABP,[1]; Before MCAo(15 min),90 ± 6 mmHg
same,Blood gases PCO2,[1]; Before MCAo(30 min),38.1 ± 1.4 mmHg
same,Blood gases PH,[1]; Before MCAo(30 min),7.44 ± 0.02
same,Blood gases PO2,[1]; Before MCAo(30 min),123 ± 8 mmHg
same,Body Temperature,[1]; Before MCAo(30 min),36.7 ± 0.19 °C
same,MABP,[1]; Before MCAo(30 min),76 ± 5 mmHg
same,Body Temperature,[1]; Before MCAo(45 min),36.6 ± 0.21 °C
same,MABP,[1]; Before MCAo(45 min),120 ± 9 mmHg
same,Body weight,[1]; Before anesthesia,271 ± 5 g
same,Blood gases PCO2,[1]; During MCAo (5 min),41.0 ± 1.3 mmHg
same,Blood gases PH,[1]; During MCAo (5 min),7.44 ± 0.02
same,Blood gases PO2,[1]; During MCAo (5 min),112 ± 6 mmHg
same,Body Temperature,[1]; During MCAo (5 min),36.7 ± 0.16 °C
same,MABP,[1]; During MCAo (5 min),112 ± 9 mmHg
same,Body Temperature,[1]; During MCAo (15 min),36.8 ± 0.23 °C
same,MABP,[1]; During MCAo (15 min),98 ± 6 mmHg
same,uptake of 45Ca2+ produced by applying NMDA,NMDARs,did not alter
same,toxic effects in control or stretched cultures,[2]; 50 nM,no toxic effects
same,"heightened vulnerability of stretched cultures to NMDA toxicity, pre-treatment","[2]; 50 nM 30 min prior to stretch, NMDA 30 μM 1 h, cell death at 20 h",completely abolished
same,"enhanced cell mortality in stretched neurons by NMDA challenge, post-treatment",[2]; 50 nM applied after terminating the 1 h NMDA challenge,reduced the enhanced cell mortality
